These results are taken from patent US9796733B2, “Imidazo-pyrazine derivatives useful as soluble guanylate cyclase activators” (Merck Sharp & Dohme Corp., priority 2014, dated 2017).

The target of one test is T1, sGC α1/β1 heterodimer (Homo sapiens, UniProt Q02108+Q02153).
T1 construct: expressed in transfected cells; host or cells: CHO-K1 (clone #7, CHO-K1/sGC)
T1 sequence (Q02108 1-690): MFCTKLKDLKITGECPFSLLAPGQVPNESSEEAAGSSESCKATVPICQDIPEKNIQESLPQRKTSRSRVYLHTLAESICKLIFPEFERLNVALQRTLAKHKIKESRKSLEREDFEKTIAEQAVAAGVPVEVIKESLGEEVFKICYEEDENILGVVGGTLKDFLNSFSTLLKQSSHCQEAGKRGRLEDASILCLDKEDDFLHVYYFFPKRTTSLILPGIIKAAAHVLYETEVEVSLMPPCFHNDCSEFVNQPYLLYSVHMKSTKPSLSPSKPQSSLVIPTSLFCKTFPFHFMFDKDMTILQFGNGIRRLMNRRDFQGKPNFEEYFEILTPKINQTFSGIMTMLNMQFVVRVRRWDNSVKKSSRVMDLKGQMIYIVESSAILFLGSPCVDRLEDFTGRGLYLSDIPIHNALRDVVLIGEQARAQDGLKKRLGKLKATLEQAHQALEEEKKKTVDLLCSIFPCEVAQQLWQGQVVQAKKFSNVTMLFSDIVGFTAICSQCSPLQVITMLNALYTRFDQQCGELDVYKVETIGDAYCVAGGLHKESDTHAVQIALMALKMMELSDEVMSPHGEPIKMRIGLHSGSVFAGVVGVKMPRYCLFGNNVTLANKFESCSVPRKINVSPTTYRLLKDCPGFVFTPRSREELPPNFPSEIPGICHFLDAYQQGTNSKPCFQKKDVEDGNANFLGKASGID
T1 sequence (Q02153 1-619): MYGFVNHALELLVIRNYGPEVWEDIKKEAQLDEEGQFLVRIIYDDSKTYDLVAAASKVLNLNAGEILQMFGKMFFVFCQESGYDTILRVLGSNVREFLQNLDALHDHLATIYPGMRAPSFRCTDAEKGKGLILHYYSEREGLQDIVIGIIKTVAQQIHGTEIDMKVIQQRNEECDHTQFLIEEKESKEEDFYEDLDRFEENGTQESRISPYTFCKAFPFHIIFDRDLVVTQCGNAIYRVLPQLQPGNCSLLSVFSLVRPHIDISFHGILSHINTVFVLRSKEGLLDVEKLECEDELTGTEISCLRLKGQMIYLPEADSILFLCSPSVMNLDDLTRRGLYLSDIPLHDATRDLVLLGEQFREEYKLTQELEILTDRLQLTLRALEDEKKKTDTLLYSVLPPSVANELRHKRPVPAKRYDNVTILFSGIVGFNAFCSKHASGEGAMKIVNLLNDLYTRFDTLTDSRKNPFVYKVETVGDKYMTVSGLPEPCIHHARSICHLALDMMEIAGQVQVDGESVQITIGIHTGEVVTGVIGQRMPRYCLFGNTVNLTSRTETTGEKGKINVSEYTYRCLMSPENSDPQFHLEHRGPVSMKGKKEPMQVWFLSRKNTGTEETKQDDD
Kind of test: Cell-based sGC functional assay (CASA assay): cGMP generation in CHO-K1/sGC cells, HTRF detection. Conditions: for Emax: CHO-K1, percent activation relative to standard Compound A in CHO-K1/sGC cells, read-out: % Act.; for EC50: inflection point (IP) of cGMP generation in CHO-K1/sGC cells, 4P fit, activity expressed as percentage of Compound A. The gist of the method: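 Stable CHO-K1/sGC cells in EBSS buffer with 5 mM MgCl2, 0.05% BSA and 0.5 mM IBMX were incubated with compound (2.5% DMSO final) ±1 μM DETA-NO for 1 hr at 37° C. cGMP was measured by HTRF. Activation is expressed as % of reference HDA Compound A maximum, with IP and max fold induction from a 4P fit.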
Background: In TR-FRET formats the signal depends on donor and acceptor labels being close together.

The subject of test [1] is Spontaneously hypertensive rats (SHR). In words: Acute efficacy in spontaneously hypertensive rats (SHR): telemetry blood pressure lowering after a single oral dose. It is filed as in vivo, rat. An outline of the steps: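 Male SHR carrying aortic telemetry implants (14-day recovery) received a single oral gavage of compound or vehicle (10% transcutol/20% Cremophor/70% water). Conscious blood pressure was sampled 30 s every 10 min and averaged hourly; change was taken against the prior-day vehicle baseline, reported as maximum peak SBP decrease at a given PO dose (mpk).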

As for `Cc1nnc(C2(C3CC3)C(=O)Nc3nc(-c4cn5ccnc5c(CCC(F)(F)C(F)(F)F)n4)nc(N)c32)s1` (stereo not drawn) [Example 53A, 4-amino-5-cyclopropyl-5-(5-methyl-1,3,4-thiadiazol-2-yl)-2-(8-(3,3,4,4,4-pentafluorobutyl)imidazo[1,2-a]pyrazin-6-yl)-5H-pyrrolo[2,3-d]pyrimidin-6(7H)-one], on sGC α1/β1 heterodimer, the Emax was determined as 104% and the EC50 was 132 nM. For the same compound, in test [1] (P.O. 3.0 mpk), the “Maximum peak decrease of systolic blood pressure (SBP) in SHR, Cat.” value (shortened to “Maximum peak decrease”) is listed as “C (Category C=SBP in SHRs>40 mmHg)”.
Take `CC1(c2nnc(C3CC3)s2)C(=O)Nc2nc(-c3cn4ccnc4c(CCC(F)(F)C(F)(F)F)n3)nc(N)c21` (stereo not drawn) [Example 59A, 4-amino-5-(5-cyclopropyl-1,3,4-thiadiazol-2-yl)-5-methyl-2-(8-(3,3,4,4,4-pentafluorobutyl)imidazo[1,2-a]pyrazin-6-yl)-5H-pyrrolo[2,3-d]pyrimidin-6(7H)-one]: at sGC α1/β1 heterodimer, the Emax was found to be 97% and the 50% effective concentration (EC50) worked out at 67 nM. Besides, the “Maximum peak decrease” value in test [1] (P.O. 1.0 mpk) is “A (Category A=SBP in SHRs<20 mmHg)”.
Regarding `CC1(C(=O)NC2CC2)C(=O)Nc2nc(-c3cn4ccnc4c(CCC(F)(F)C(F)(F)F)n3)nc(N)c21` (stereo not drawn) [Example 60A, 4-amino-N-cyclopropyl-5-methyl-6-oxo-2-(8-(3,3,4,4,4-pentafluorobutyl)imidazo[1,2-a]pyrazin-6-yl)-6,7-dihydro-5H-pyrrolo[2,3-d]pyrimidine-5-carboxamide], at sGC α1/β1 heterodimer, the Emax amounted to 41% and it took 88 nM to reach a half-maximal effect (EC50). In test [1] (P.O. 1.0 mpk), the “Maximum peak decrease” value is reported as “A (Category A=SBP in SHRs<20 mmHg)”.
On to `CC1(c2ccc(F)cn2)C(=O)Nc2nc(-c3cn4ccnc4c(Cc4ccc(F)cc4)n3)nc(N)c21` (stereo not drawn) [Example 69B, 4-Amino-2-(8-(4-fluorobenzyl)imidazo[1,2-a]pyrazin-6-yl)-5-(5-fluoropyridin-2-yl)-5-methyl-5H-pyrrolo[2,3-d]pyrimidin-6(7H)-one], for which, on sGC α1/β1 heterodimer, the Emax stood at 116% and the EC50 was 9 nM. Also, the “Maximum peak decrease” value in test [1] (P.O. 0.3 mpk) is given as “C (Category C=SBP in SHRs>40 mmHg)”.
As for `CC1(C)C(=O)Nc2nc(-c3cn4ccnc4c(Cc4ccccc4F)n3)nc(N)c21` [Example 70, 4-amino-2-(8-(2-fluorobenzyl)imidazo[1,2-a]pyrazin-6-yl)-5,5-dimethyl-5H-pyrrolo[2,3-d]pyrimidin-6(7H)-one], at sGC α1/β1 heterodimer, the Emax stood at 109% and the EC50 amounted to 21 nM. Besides, the “Maximum peak decrease” value in test [1] (P.O. 0.3 mpk) is recorded as “B (Category B=SBP in SHRs 20-40 mmHg)”.
For the compound `CC1(C)C(=O)Nc2nc(-c3cn4ccnc4c(Cc4cccc(F)c4)n3)nc(N)c21` [Example 71, 4-amino-2-(8-(3-fluorobenzyl)imidazo[1,2-a]pyrazin-6-yl)-5,5-dimethyl-5H-pyrrolo[2,3-d]pyrimidin-6(7H)-one], at sGC α1/β1 heterodimer, the Emax was 109% and it took 44 nM to reach a half-maximal effect (EC50). Also, the “Maximum peak decrease” value in test [1] (P.O. 1.0 mpk) was “C (Category C=SBP in SHRs>40 mmHg)”.
Consider `CC1(C)C(=O)Nc2nc(-c3cn4ccnc4c(Cc4ccccc4)n3)nc(N)c21` [Example 76, 4-amino-2-(8-benzylimidazo[1,2-a]pyrazin-6-yl)-5,5-dimethyl-5H-pyrrolo[2,3-d]pyrimidin-6(7H)-one], for which, on sGC α1/β1 heterodimer, the Emax was 119% and the midpoint of the response, the EC50, lay at 91 nM. In test [1] (P.O. 1.0 mpk), the “Maximum peak decrease” value is reported as “B (Category B=SBP in SHRs 20-40 mmHg)”.
In the case of `CCC1(C2CC2)C(=O)Nc2nc(-c3cn4ccnc4c(CCC(F)(F)C(F)(F)F)n3)nc(N)c21` (stereo not drawn) [Example 86B, 4-amino-5-cyclopropyl-5-ethyl-2-(8-(3,3,4,4,4-pentafluorobutyl)imidazo [1,2-a]pyrazin-6-yl)-5H-pyrrolo[2,3-d]pyrimidin-6(7H)-one], on sGC α1/β1 heterodimer, the Emax was 102% and the EC50 is 201 nM. The “Maximum peak decrease” value in test [1] (P.O. 3.0 mpk) is listed as “A (Category A=SBP in SHRs<20 mmHg)”.
Turning to `CC1(c2ccccc2)C(=O)Nc2nc(-c3cn4ccnc4c(Cc4c(F)ccc(F)c4F)n3)nc(N)c21` (stereo not drawn) [Example 100B, 4-amino-5-methyl-5-phenyl-2-(8-(2,3,6-trifluorobenzyl)imidazo[1,2-a]pyrazin-6-yl)-5H-pyrrolo[2,3-d]pyrimidin-6(7H)-one], on sGC α1/β1 heterodimer, the Emax came to 96% and a half-maximal effect (EC50) was put at 13 nM. The “Maximum peak decrease” value in test [1] (P.O. 0.3 mpk) is “A (Category A=SBP in SHRs<20 mmHg)”.
`CC1(c2ccc(F)cc2)C(=O)Nc2nc(-c3cn4ccnc4c(-c4ccccc4)n3)nc(N)c21` (stereo not drawn) [Example 112A, 4-amino-5-(4-fluorophenyl)-5-methyl-2-(8-phenylimidazo[1,2-a]pyrazin-6-yl)-5H-pyrrolo[2,3-d]pyrimidin-6(7H)-one]: on sGC α1/β1 heterodimer, the Emax was found to be 89% and the midpoint of the response, the EC50, lay at 289 nM. In addition, the “Maximum peak decrease” value in test [1] (P.O. 3.0 mpk) is listed as “B (Category B=SBP in SHRs 20-40 mmHg)”.
As for `CC1(c2ccc(F)cc2)C(=O)Nc2nc(-c3cn4ccnc4c(CC4CCC4)n3)nc(N)c21` (stereo not drawn) [Example 114A, 4-amino-2-(8-(cyclobutylmethyl)imidazo [1,2-a]pyrazin-6-yl)-5-(4-fluorophenyl)-5-methyl-5H-pyrrolo[2,3-d]pyrimidin-6(7H)-one], on sGC α1/β1 heterodimer, the Emax worked out at 94% and a half-maximal response (EC50) required 57 nM. Besides, the “Maximum peak decrease” value in test [1] (P.O. 0.3 mpk) is recorded as “C (Category C=SBP in SHRs>40 mmHg)”.
With `CC1(c2ccc(F)cn2)C(=O)Nc2nc(-c3cn4ccnc4c(CC4CCC4)n3)nc(N)c21` (stereo not drawn) [Example 115B, 4-amino-2-(8-(cyclobutylmethyl)imidazo [1,2-a]pyrazin-6-yl)-5-(5-fluoropyridin-2-yl)-5-methyl-5H-pyrrolo[2,3-d]pyrimidin-6(7H)-one], at sGC α1/β1 heterodimer, the Emax was 111% and the EC50 was 14 nM. The “Maximum peak decrease” value in test [1] (P.O. 0.3 mpk) was “C (Category C=SBP in SHRs>40 mmHg)”.
Turning to `CC1(c2ccc(Cl)cc2)C(=O)Nc2nc(-c3cn4ccnc4c(CC4CCC4)n3)nc(N)c21` (stereo not drawn) [Example 118A, 4-amino-5-(4-chlorophenyl)-2-(8-(cyclobutylmethyl)imidazo [1,2-a]pyrazin-6-yl)-5-methyl-5H-pyrrolo[2,3-d]pyrimidin-6(7H)-one], at sGC α1/β1 heterodimer, the Emax was 76% and the response was half-maximal at 33 nM (EC50). In addition, in test [1] (P.O. 0.3 mpk), the “Maximum peak decrease” value is reported as “C (Category C=SBP in SHRs>40 mmHg)”.
`CCCc1nc(-c2nc(N)c3c(n2)NC(=O)C3(C)c2ccc(Cl)c(F)c2)cn2ccnc12` (stereo not drawn) [Example 124B, 4-amino-5-(4-chloro-3-fluorophenyl)-5-methyl-2-(8-propylimidazo[1,2-a]pyrazin-6-yl)-5H-pyrrolo[2,3-d]pyrimidin-6(7H)-one]: on sGC α1/β1 heterodimer, the Emax turned out to be 103% and a half-maximal response (EC50) required 34 nM. In test [1] (P.O. 0.3 mpk), the “Maximum peak decrease” value is “B (Category B=SBP in SHRs 20-40 mmHg)”.
On to `CCCc1nc(-c2nc(N)c3c(n2)NC(=O)C3(C)c2ccc(Cl)cn2)cn2ccnc12` (stereo not drawn) [Example 129A, 4-amino-5-(5-chloropyridin-2-yl)-5-methyl-2-(8-propylimidazo[1,2-a]pyrazin-6-yl)-5H-pyrrolo[2,3-d]pyrimidin-6(7H)-one], for which, on sGC α1/β1 heterodimer, the Emax came to 94% and the half-maximal effective concentration (EC50) was determined as 107 nM. The “Maximum peak decrease” value in test [1] (P.O. 1.0 mpk) is “B (Category B=SBP in SHRs 20-40 mmHg)”.

As a reminder, the EC50 is the concentration that produces a half-maximal response. The low end stands for a more potent agent, the high end for a less potent agent.
